The record followed here is PMC11295857 (Malaria Journal, 2024).

This experiment concerns P. falciparum Dd2 strain. The format is cell-based, Plasmodium falciparum. To be noted: single dose, 72 h in vitro treatment; Fig. 1B; normalized to non-treated cultures.

As for poly-L-glutamate, the “parasite growth inhibition (in words)” value is reported as “parasite growth inhibition was not observed”.
